Measured values taken from PubChem BioAssay (NCI).
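Interpolation was linear, between the two tested concentrations surrounding the appropriate level; five concentrations were tested over 48 hours in 96-well plates. GI50 = concentration required for 50% inhibition of growth. At the TGI there is no net growth.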

What was measured:
Assay in all cases: NCI tumour cell line growth inhibition, 48 h
M14 melanoma = system: M14 melanoma
UACC-257 melanoma = system: UACC-257 melanoma
NCI-H226 lung = system: NCI-H226 lung
786-0 renal = system: 786-0 renal
PC-3 prostate = system: PC-3 prostate
CCRF-CEM leukemia = system: CCRF-CEM leukemia
NCI-H522 lung = system: NCI-H522 lung
SF-268 CNS = system: SF-268 CNS
OVCAR-4 ovarian = system: OVCAR-4 ovarian
KM12 colon = system: KM12 colon

Structure (SMILES)	GI50 (M14 melanoma) [µM]	TGI (M14 melanoma) [µM]	GI50 (UACC-257 melanoma) [µM]	TGI (UACC-257 melanoma) [µM]	GI50 (NCI-H226 lung) [µM]	TGI (NCI-H226 lung) [µM]	GI50 (786-0 renal) [µM]	TGI (786-0 renal) [µM]	GI50 (PC-3 prostate) [µM]	TGI (PC-3 prostate) [µM]	GI50 (CCRF-CEM leukemia) [µM]	TGI (CCRF-CEM leukemia) [µM]	GI50 (NCI-H522 lung) [µM]	TGI (NCI-H522 lung) [µM]	GI50 (SF-268 CNS) [µM]	TGI (SF-268 CNS) [µM]	GI50 (OVCAR-4 ovarian) [µM]	TGI (OVCAR-4 ovarian) [µM]	GI50 (KM12 colon) [µM]	TGI (KM12 colon) [µM]
OCCCCC#Cc1ccccc1C#Cc1ccccc1F	14.6	29.6	18.9	39.2	24	49.8	14.3	29.8	20	48.2	24.6	48.7	16.3	32.6	25.3	62.4	> 100	> 100	18.8	37.7
C=C1C(=O)O[C@H]2[C@H]1CC/C(CNS(=O)(=O)c1ccc3ccccc3c1)=C\CC[C@@]1(C)O[C@@H]21	1.57	3.49	1.9	4.54	13.9	34.8	1.62	3.22	7.59	21.1	0.399	2.31	0.444	1.8	2.72	10.1	4.2	18.7	10.8	23.8
C=C1C(=O)O[C@H]2[C@H]1CC/C(CNC(=O)/C=C/c1cccc(OC)c1)=C\CC[C@@]1(C)O[C@@H]21	1.42	3.11	1.45	2.98	1.82	4.84	1.54	3.58	1.8	3.86	0.419	5.29	0.435	1.77	2.29	6.69	1.69	4.79	5.8	20.5
CCc1ccc(-c2ccc(=O)n(-c3ccc(S(N)(=O)=O)cc3)n2)cc1	0.764	> 22.2	> 30.9	> 100	21.1	> 100	11.7	> 79.8	1.35	> 100	1.22	> 100	0.182	4.18	9.06	> 69.3	> 100	> 100	0.68	> 100
CCOCC(=O)N[C@H]1CCc2cc(OC)c(OC)c(OC)c2-c2ccc(SC)c(=O)cc21	–	> 100	–	> 100	–	0.398	–	> 88	–	> 25.3	–	> 70.2	–	< 0.01	–	> 90.9	–	> 100	–	< 0.0631
Nc1ccc(-c2nc3ccccc3[nH]2)c(O)c1	30.4	> 100	18.6	49.2	35.5	> 100	47.4	> 100	23.9	> 100	–	–	> 100	> 100	27.6	> 100	–	–	17.9	57.4
CC/C=C\C/C=C\C[C@H](O)C/C=C1/C(=O)C=C[C@H]1C/C=C\CCC(=O)OC	6.11	> 8.25	–	–	2.32	> 8.25	3.53	> 8.25	3.75	> 8.25	2.31	7.8	1.39	3.42	3.04	> 8.25	> 8.25	> 8.25	2.2	> 8.25
Cn1c(=O)c(Oc2cccc(F)c2)cc2cnc(NC3CCOCC3)nc21	> 25	> 25	> 25	> 25	> 25	> 25	> 25	> 25	> 25	> 25	–	–	> 25	> 25	> 25	> 25	> 22.6	> 25	> 25	> 25
O=C1c2ccccc2-c2nccc3cc(Cl)nc1c23	–	–	–	–	18.7	> 81.5	5.72	> 100	2.96	> 100	1.06	–	0.458	1.61	1.74	4.28	1.64	3	–	–
CCCCCCCCCCCCCC[P+](CCCCCC)(CCCCCC)CCCCCC	0.0521	2.91	0.0755	0.79	–	–	0.253	2.1	0.03	0.125	–	–	0.105	0.956	–	–	0.126	–	0.0397	0.375
Cc1ccc2c[c]1[Hg][CH2]COS2(=O)=O	17.4	31.2	16.4	29.9	19.8	43.5	18.1	32	18.3	32.4	–	–	22.6	42.8	18	32.4	11.3	23.4	–	–
C[C@]12CC/C(=N\N)C[C@@H]1CC[C@@H]1[C@@H]2CC[C@]2(C)/C(=N/N)CC[C@@H]12	> 100	> 100	> 100	> 100	–	–	> 100	> 100	> 100	> 100	> 100	> 100	> 100	> 100	> 100	> 100	> 100	> 100	> 100	> 100
c1cc(C2CCCCC2)ccc1OCCCCCCN1CCNCC1	1.98	4.33	1.89	3.68	4.67	26.4	2.31	5.31	2.15	5.97	1.51	3.39	1.7	3.38	–	–	1.95	4.52	1.98	3.55
